Experimental findings from patent US8716242B2, “β-hairpin peptidomimetics” (priority 2009, dated 2014) are described below.

The nature of data set [1]: Plasma stability in mouse plasma. Format: in vitro ADME. As to conditions: mouse plasma, 37° C.; for remaining at 24 h, 10 μM: 1440 min, read-out: mouse pl. cpd left at 1440 min; for mouse pl. T1/2: up to 1440 min. The method, then:
(§1) Percent hemolysis was calculated as follows: (OD540peptide/OD540H2O)×100%. 2.6. Plasma Stability
(§2) The stability of the peptides in human and mouse plasma was determined by applying the following method: 346.5 μL/deep well of freshly thawed human plasma (Basler Blutspendedienst) and mouse plasma (Harlan Sera-Lab, UK), respectively, were spiked with 3.5 μL/well of compound dissolved in DMSO/H2O ([…] [v/v], 1 mM, triplicate) and incubated at 37° C. At t=0, 15, 30, 60, 120, 240 and 1440 min aliquots of 50 μL were transferred to filtration plate wells containing 150 μL/well of 2% formic acid in acetonitrile. Following shaking for 2 min the occurred suspensions were filtrated by vacuum and 50 μL of each filtrate was mixed with 100 μL of 1% formic acid in H2O. After transfer to a propylene microtiter plate, the filtrates were analyzed by LC/MS as follows: Column: Waters, XBridge C18, mobile phases: (A) water+0.1% formic acid and (B) acetonitrile/water, 95/5 (v/v)+0.1% formic acid, gradient: 5%-100% (B) in 2 minutes, electrospray ionization, MRM detection (triple quadrupole). The peak areas were determined and triplicate values are averaged. The stability is expressed in percent of the initial value at t=0. (tx/t0×100). By using the TREND function of EXCEL (Microsoft Office 2003) T1/2 were determined.

Data set [2] in a line: Plasma stability in human plasma. The class given is in vitro ADME. As to conditions: human plasma, 37° C.; for remaining at 24 h, 10 μM: 1440 min, read-out: human pl. cpd left at 1440 min; for human pl. T1/2 / half-life: up to 1440 min; for half-life: read-out: human pl. T1/2. The method, then: as §1, §2
The nature of data set [3]: Cytotoxicity, MTT reduction assay, HELA cells. Format: cell-based. The conditions noted are these: 48 h, 12.5-50 μM. The method, then: (§3) Mouse pre-B cells were cultured in RPMI1640 plus 5% FBS, antibiotic/antimycotic, non essential amino acid, 50 μM β-mercaptoethanol and 1 mM natrium pyruvate. HELA cells were maintained in RPMI1640 plus 10% FBS, pen/strept and 2 mM L-glutamine. Cos-7 cells were grown in DMEM medium with […] glucose supplemented with 10% FCS, pen/strept and 2 mM L-glutamine. All cell lines were grown at 37° C. at 5% CO2. Cell media, media supplements, PBS-buffer, HEPES, antibiotic/antimycotic, pen/strept, non essential amino acid, L-glutamine, β-mercaptoethanol and sera were purchased from Gibco (Pailsey, UK). All fine chemicals were supplied by Merck (Darmstadt, Germany).
(§4) The cytotoxicity of the peptides to HELA cells (Acc57) and COS-7 cells (CRL-1651) was determined using the MTT reduction assay (T. Mossman, J. Immunol. Meth. 1983, 65, 55-63; M. V. Berridge, A. S. Tan, Arch. Biochem. Biophys. 1993, 303, 474-482). Briefly, the method was as follows: 4000 HELA cells/well and 3400 COS-7 cells/well were seeded and grown in 96-well microtiter plates for 24 h at 37° C. at 5% CO2. Thereafter, time zero (Tz) was determined by MTT reduction (see below). The supernatant of the remaining wells was discarded, and fresh medium and compounds in serial dilutions (12.5, 25 and 50 μM, triplicates) were pipetted into the wells. After incubation of the cells for 48 h at 37° C. at 5% CO2 the supernatant was discarded again and 100 μL MTT reagent (0.5 mg/mL in RPMI1640 and DMEM, respectively)/well was added. Following incubation at 37° C. for 2-4 h the media were aspirated and the cells were spiked (100 μL isopropanol/well). The absorbance of the solubilized formazan was measured at 595 nm (OD595peptide). For each concentration averages were calculated from triplicates. The percentage of growth was calculated as follows: (OD595peptide-OD595Tz-OD595Empty well)/(OD595Tz-OD595Empty well)×100%. The GI50 (Growth Inhibition) concentrations were calculated for each peptide by using a trend line function for the concentrations (50, 25, 12.5 and 0 μM), the corresponding percentages and the value 50, (=TREND (C50: C0, %50:%0,50).

Data set [4] can be described thus: Cytotoxicity, MTT reduction assay, COS-7 cells. Format: cell-based. The conditions noted are these: 48 h, 12.5-50 μM. The protocol: as §3, §4

Numbered stars: 1 amine (or outer) side, 2 acyl side, 3 side chain; on linkers, the order of the positions; unused ones are H or OH. Bridge positions count the residues as written; N and C are the ends. Square brackets hold non-standard residues; d marks the D form. Side chains are listed from the residue outwards. Peptide text beside a SMILES is read from it. * marks the point of attachment. Cholyl = C[C@H](CCC(=O)*)[C@H]1CC[C@H]2[C@@H]3[C@H](O)C[C@@H]4C[C@H](O)CC[C@]4(C)[C@H]3C[C@H](O)[C@]12C; Adamantane1carbonyl = O=C(C12CC3CC(CC(C3)C1)C2)*; Hexadecanoyl(16-OH) = O=C(CCCCCCCCCCCCCCCO)*; X1 = O=C([C@H]1C[C@H](N[*:3])CN1[*:1])[*:2]; NH(1-Adamantyl) = C1C2CC3CC1CC(N*)(C2)C3; Gly(decyl) = CCCCCCCCCC[C@H](N)C(=O)O; Myristoyl = CCCCCCCCCCCCCC(=O)*; Octanoyl = CCCCCCCC(=O)*; Dab = NCC[C@H](N)C(=O)O Bounds are passed on as bounds.

The term GI50 denotes the concentration giving 50% growth inhibition. For the molecule `CCCCCCCCCC[C@@H]1NC(=O)[C@H](Cc2ccc(O)cc2)NC(=O)[C@@H]2CSSC[C@H](NC(=O)[C@H](Cc3ccc(O)cc3)NC(=O)[C@H](Cc3c[nH]cn3)NC(=O)[C@H](Cc3ccc(O)cc3)NC(=O)[C@@H]3CCCN3C(=O)[C@H]3CCCN3C(=O)[C@H](CCCCN)NC1=O)C(=O)N[C@@H](CCCNC(=N)N)C(=O)N[C@@H](C)C(=O)N1CCC[C@@H]1C(=O)N[C@@H](CCN)C(=O)N[C@@H](CCCNC(=N)N)C(=O)N[C@@H](Cc1ccc(O)cc1)C(=O)N2` [Ex. 8] (cyclo(YHYCRA[dP][Dab]RYCY[Gly(decyl)]K[dP]P); disulfide 4-11), in data set [1], the remaining at 24 h, 10 μM was 82% and the “mouse pl. T1/2” value was 24 h. In data set [2], the remaining at 24 h, 10 μM is 79% and the “human pl. T1/2” value was found to be 24 h. In data set [3] (HELA cells), this molecule returned a GI50 of more than 26 µM. For the same molecule, in data set [4] (COS-7 cells), the GI50 is more than 44 µM.
For `C[C@@H](O)[C@@H]1NC(=O)[C@H](Cc2c[nH]cn2)NC(=O)[C@H](Cc2ccc(O)cc2)NC(=O)[C@@H]2CCCN2C(=O)[C@H]2CCCN2C(=O)[C@H](CCC(=O)NC23CC4CC(CC(C4)C2)C3)NC(=O)[C@H](CCC(N)=O)NC(=O)[C@H](Cc2ccc(O)cc2)NC(=O)[C@@H]2CSSC[C@H](NC1=O)C(=O)N[C@@H](CCCNC(=N)N)C(=O)NCC(=O)N1CCC[C@@H]1C(=O)N[C@@H](CCN)C(=O)N[C@@H](CCCNC(=N)N)C(=O)N[C@@H](Cc1ccc(O)cc1)C(=O)N2` [Ex. 36] (cyclo(YHTCRG[dP][Dab]RYCYQE(NH(1-Adamantyl))[dP]P); disulfide 4-11), in data set [2], the remaining at 24 h, 10 μM came to 53%. Moreover, the half-life in data set [2] was found to be 23.2 h. Besides, the GI50 in data set [3] and in data set [4] was more than 50 µM in each case.
`C[C@@H]1NC(=O)[C@H](CO)NC(=O)[C@@H]2CSSC[C@H](NC(=O)[C@H](Cc3ccc(O)cc3)NC(=O)[C@H](CCCNC(=N)N)NC(=O)[C@H](CCN)NC(=O)[C@H]3CCCN3C1=O)C(=O)N[C@@H](Cc1ccc(O)cc1)C(=O)N[C@@H](CCCCNC(=O)CCCCCCCCCCCCCCCO)C(=O)N[C@@H](CCCCN)C(=O)N1CCC[C@@H]1C(=O)N1CCC[C@H]1C(=O)N[C@@H](Cc1ccc(O)cc1)C(=O)N[C@@H](Cc1c[nH]cn1)C(=O)N[C@@H](Cc1ccc(O)cc1)C(=O)N2` [Ex. 21] (cyclo(YHYCSA[dP][Dab]RYCYK(Hexadecanoyl(16-OH))K[dP]P); disulfide 4-11): in data set [1], the remaining at 24 h, 10 μM was 63% and the “mouse pl. T1/2” value amounted to 24 h. Also, in data set [2], the remaining at 24 h, 10 μM was 49% and the half-life amounted to 18.6 h. The GI50 in data set [3] is more than 50 µM. Besides, the GI50 in data set [4] is more than 50 µM.
`CCCCCCCC(=O)NCCCC[C@@H]1NC(=O)[C@H](CCC(N)=O)NC(=O)[C@H](Cc2ccc(O)cc2)NC(=O)[C@@H]2CSSC[C@H](NC(=O)[C@H](Cc3ccc(O)cc3)NC(=O)[C@H](CCCNC(=N)N)NC(=O)[C@H](Cc3ccc(O)cc3)NC(=O)[C@@H]3CCCN3C(=O)[C@H]3CCCN3C1=O)C(=O)N[C@@H](CO)C(=O)N[C@@H](C)C(=O)N1CCC[C@@H]1C(=O)N[C@@H](CCN)C(=O)N[C@@H](CCCNC(=N)N)C(=O)N[C@@H](Cc1ccc(O)cc1)C(=O)N2` [Ex. 32] (cyclo(YRYCSA[dP][Dab]RYCYQK(Octanoyl)[dP]P); disulfide 4-11): the remaining at 24 h, 10 μM in data set [2] was 39%. Besides, the half-life in data set [2] was determined as 12.9 h. In addition, the figures for the concentration for 50% growth inhibition (GI50) in data set [3] (HELA cells) and in data set [4] (COS-7 cells) were more than 24 µM and more than 50 µM, respectively.
On to `C[C@@H](O)[C@@H]1NC(=O)[C@H](Cc2c[nH]cn2)NC(=O)[C@H](Cc2ccc(O)cc2)NC(=O)[C@@H]2CCCN2C(=O)[C@H]2CCCN2C(=O)[C@H](CCCCNC(=O)C23CC4CC(CC(C4)C2)C3)NC(=O)[C@H](CCC(N)=O)NC(=O)[C@H](Cc2ccc(O)cc2)NC(=O)[C@@H]2CSSC[C@H](NC1=O)C(=O)N[C@@H](CCCNC(=N)N)C(=O)NCC(=O)N1CCC[C@@H]1C(=O)N[C@@H](CCN)C(=O)N[C@@H](CCCNC(=N)N)C(=O)N[C@@H](Cc1ccc(O)cc1)C(=O)N2` [Ex. 35] (cyclo(YHTCRG[dP][Dab]RYCYQK(Adamantane1carbonyl)[dP]P); disulfide 4-11), for which the remaining at 24 h, 10 μM in data set [2] was determined as 63%. Also, the “human pl. T1/2” value in data set [2] was 24 h. Also, the GI50 in data set [3] is more than 50 µM; in data set [4], more than 30 µM.
Take `CCCCCCCCCCCCCC(=O)N[C@H]1C[C@@H]2C(=O)N[C@@H](CCN)C(=O)N[C@@H](CCCNC(=N)N)C(=O)N[C@@H](Cc3ccc(O)cc3)C(=O)N[C@H]3CSSC[C@H](NC(=O)[C@H]([C@@H](C)O)NC(=O)[C@H](Cc4c[nH]cn4)NC(=O)[C@H](Cc4ccc(O)cc4)NC(=O)[C@@H]4CCCN4C(=O)[C@H]4CCCN4C(=O)[C@H](CCC(N)=O)NC(=O)[C@H](CCC(N)=O)NC(=O)[C@H](Cc4ccc(O)cc4)NC3=O)C(=O)N[C@@H](CCCNC(=N)N)C(=O)NCC(=O)N2C1` [Ex. 4] (cyclo(YHTCRG[X1](Myristoyl)[Dab]RYCYQQ[dP]P); disulfide 4-11): in data set [1], the remaining at 24 h, 10 μM worked out at 62% and the “mouse pl. T1/2” value was 24 h. For the same molecule, in data set [2], the remaining at 24 h, 10 μM came out at 66% and the half-life came out at 5.25 h. The molecule further showed a 50% growth inhibitory concentration (GI50) in data set [3] (HELA cells) of more than 50 µM. This molecule showed a concentration for 50% growth inhibition (GI50) in data set [4] (COS-7 cells) of more than 50 µM.
As for `C[C@@H](O)[C@@H]1NC(=O)[C@H](Cc2c[nH]cn2)NC(=O)[C@H](Cc2ccc(O)cc2)NC(=O)[C@@H]2CCCN2C(=O)[C@H]2CCCN2C(=O)[C@H](CCC(N)=O)NC(=O)[C@H](CCC(=O)NC23CC4CC(CC(C4)C2)C3)NC(=O)[C@H](Cc2ccc(O)cc2)NC(=O)[C@@H]2CSSC[C@H](NC1=O)C(=O)N[C@@H](CCCNC(=N)N)C(=O)NCC(=O)N1CCC[C@@H]1C(=O)N[C@@H](CCN)C(=O)N[C@@H](CCCNC(=N)N)C(=O)N[C@@H](Cc1ccc(O)cc1)C(=O)N2` [Ex. 31] (cyclo(YHTCRG[dP][Dab]RYCYE(NH(1-Adamantyl))Q[dP]P); disulfide 4-11), the remaining at 24 h, 10 μM in data set [2] was 68%. Further, the “human pl. T1/2” value in data set [2] was determined as 24 h. Moreover, the 50% growth inhibitory concentration (GI50) in data set [3] is more than 37 µM; in data set [4], more than 50 µM.
On to `C[C@@H]1NC(=O)[C@H](CO)NC(=O)[C@@H]2CSSC[C@H](NC(=O)[C@H](Cc3ccc(O)cc3)NC(=O)[C@H](CCCNC(=N)N)NC(=O)[C@H](CCN)NC(=O)[C@H]3CCCN3C1=O)C(=O)N[C@@H](Cc1ccc(O)cc1)C(=O)N[C@@H](CCC(N)=O)C(=O)N[C@@H](CCCCNC(=O)CNC(=O)CC[C@@H](C)[C@H]1CC[C@H]3[C@@H]4[C@H](O)C[C@@H]5C[C@H](O)CC[C@]5(C)[C@H]4C[C@H](O)[C@]13C)C(=O)N1CCC[C@@H]1C(=O)N1CCC[C@H]1C(=O)N[C@@H](Cc1ccc(O)cc1)C(=O)N[C@@H](CCCNC(=N)N)C(=O)N[C@@H](Cc1ccc(O)cc1)C(=O)N2` [Ex. 33] (cyclo(YRYCSA[dP][Dab]RYCYQK([Gly-Cholyl])[dP]P); disulfide 4-11), for which, in data set [2], the remaining at 24 h, 10 μM came to 61% and the half-life amounted to 20.4 h. The same molecule yielded a 50% growth inhibitory concentration (GI50) in data set [3] (HELA cells) of more than 18 µM. In data set [4] (COS-7 cells), this molecule returned a GI50 of more than 50 µM.
